One experiment addresses T1, GST-tagged PTPN2 protein (Homo sapiens, UniProt P17706).
T1 construct: purchased ActiveMotif 31592
Briefly: Primary assay of PTPN2 enzymatic activity inhibition (DiFMUP fluorescence). The experiment is classed as biochemical. Conditions: DiFMUP substrate 2 μM, 60 min at RT. The protocol:
Compound activity was determined using GST-tagged PTPN2 protein (Cat #31592, ActiveMotif) (SEQ ID NO: 1) in an in vitro enzymatic reaction. The enzymatic reaction was carried out in assay buffer (50 mM HEPES Na salt pH 7.2-7.4, 2 mM EDTA, 100 mM NaCl, 52 ng/μL BSA, and 6 mM DTT). The compounds were dispensed on a 384 well Diamond Well Plate (Axigen, Cat #P-384-120SQ-C-S) using the Biomek FX liquid handling system at 100× solutions of compounds in DMSO. 2× PTPN2 (final concentration 0.004 ng/μL) was prepared in 1× Assay buffer and 25 μL of mixture per well was added into Reaction plate (Optiplate, black, Perkin Elmer, Cat #6007270). Add 25 μL of 1× buffer to Ctrl- (Substrate w/o PTPN2) wells followed by centrifugation at 100 g for 1 min. Next step the Compounds were added to Reaction plate using Biomek station via following steps: 3 ul of 100× compounds (in DMSO) were mixed with 27 μL of Assay Buffer, then 5 μL of this mixture was added to Reaction plate with 25 μL of PTPN2 Mix. Plates were centrifuged for 1 min at 100 g and incubated for another 10 minutes at room temperature. Finally, 20 μL of 2.5× Substrate (DiFUMP, Invitrogen™ Cat #D6567) mix was added into appropriate wells of Reaction plate to the final concentration of 2 μM, plate was centrifuged at 100 g for 1 min followed by incubation at RT for 60 min, and the Fluorescence Intensity was measured using a Microplate Reader (ClarioStar Plus, excitation 360 nm, emission 450 nm). The % inhibition was then used to calculate the IC50 values. The IC50 values are shown in Table A1, wherein “A” corresponds to IC50<5.0 nm, “B” corresponds to 5.0 nm≤IC50<10.0 nm, “C” corresponds to 10.0 nm≤IC50<50.0 nm, “D” corresponds to 50.0 nm≤IC50<100.0 nm, and “E” corresponds to 100.0 nm≤IC50<500.0 nm, and “F” corresponds to 500.0 nm≤IC50.

The subject of experiment [1] is B16F10 mouse melanoma cells. Briefly: Tumor cells B16F10 cellular growth IFNγ-induced inhibition assay (CellTiter-Glo). As to conditions: for IC50: B16-F10, 72 h, 3 days incubation; for inhibition at 100 µM: B16-F10, B16F10, 100 μM compound. Format: cell-based. On the procedure:
B16F10 mouse melanoma cells (ATCC Cat #CRL-6475) were seeded at a density of 500 cells per well in a 384-well clear bottom plate (Corning Cat #3712, Corning, N.Y.) in 40 μL total volume of DMEM+10% FBS (PanEco Cat #C420, Russia and Sigma Cat #F4135, St. Louis, Mo.). Cells were allowed to adhere overnight at 37° C., 5% CO2. On the following day, 250× solutions of compounds in DMSO (Sigma Cat #D2650) were prepared into […] plate (Diamond Well Plate, Axigen, Cat #P-384-120SQ-C-S) (final concentration of 1×) and DMSO only controls were included. Dilution Plate (Diamond Well Plate (Axigen, Cat #P-384-120SQ-C-S) was prepared by adding 49 μL of culture medium per well: half of the plate with culture medium only, half with culture medium+IFNγ (5 ng/ml). A 1 μL aliquot of 250× compounds ([…] plate) was added to 49 μL of culture medium (Dilution plate), then a 10 μL aliqut of the mixture was transferred to Reaction plate with 40 μL of cells followed by centrifugation at 240 g for 1 min. After 3 days of incubation, 10 μL of CellTiter-Glo (Promega) was added to the cells, plates were centrifuged at 240 g for 1 min, and luminescence signal was measured. For each compound, the percent growth inhibition at every compound dose level was calculated relative to the “DMSO/with IFNγ” control and used to determine the IC50.

Setting [2] is: B16F10, + IFNγ, read-out: IC50 + IFNγ.
The mark [3] stands for this setting: B16F10, no IFNγ, read-out: IC50 no IFNγ.
[4] abbreviates: + IFNγ, read-out: % Growth Inhibition at 100 μM + IFNγ.
Setting [5] is: no IFNγ, read-out: % Growth Inhibition at 100 μM no IFNγ.

The values that follow come from patent US20240262801A1, “COMPOUNDS HAVING 5-(2-FLUORO-6-HYDROXYPHENYL)-1,2,5-THIADIAZOLIDIN-3-ONE 1,1-DIOXIDE AS INHIBITORS OF PROTEIN KINASE PHOSPHATASE ENZYMES” (Ness Therapeutics, Inc., priority 2021, published 2024).

Molecules are shown by their SMILES. Where a name gives a salt, the structure may show the parent alone. Read-outs that look alike come from different tables or passages of the source.

T1 sequence (P17706 with tags, fused parts or gaps): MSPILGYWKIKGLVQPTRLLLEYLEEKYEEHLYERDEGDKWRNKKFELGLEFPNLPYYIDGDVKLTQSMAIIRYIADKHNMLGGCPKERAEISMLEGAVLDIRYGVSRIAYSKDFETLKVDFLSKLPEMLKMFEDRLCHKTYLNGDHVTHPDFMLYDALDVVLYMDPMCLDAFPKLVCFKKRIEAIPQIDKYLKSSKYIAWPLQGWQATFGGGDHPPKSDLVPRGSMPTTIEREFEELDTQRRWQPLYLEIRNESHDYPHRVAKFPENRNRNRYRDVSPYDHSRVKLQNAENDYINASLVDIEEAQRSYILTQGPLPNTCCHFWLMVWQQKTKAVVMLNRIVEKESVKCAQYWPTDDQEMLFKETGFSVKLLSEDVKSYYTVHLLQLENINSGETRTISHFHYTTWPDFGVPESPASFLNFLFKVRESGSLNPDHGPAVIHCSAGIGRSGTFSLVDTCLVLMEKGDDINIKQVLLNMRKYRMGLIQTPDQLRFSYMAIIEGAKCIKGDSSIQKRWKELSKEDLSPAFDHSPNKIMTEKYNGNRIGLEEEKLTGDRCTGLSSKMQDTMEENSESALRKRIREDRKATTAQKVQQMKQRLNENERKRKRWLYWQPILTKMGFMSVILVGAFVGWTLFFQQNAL

As to `O=C1CN(c2c(O)cc(-c3cccc(NC4CCN(S(=O)(=O)Cc5ccccc5Cl)CC4)c3)cc2F)S(=O)(=O)N1` [Example 11, 5-[3′-({1-[(2-chlorobenzyl)sulfonyl]piperidin-4-yl}amino)-3-fluoro-5-hydroxybiphenyl-4-yl]-1,2,5-thiadiazolidin-3-one 1,1-dioxide], the values for the IC50 (on GST-tagged PTPN2 protein; in experiment [1] (setting [2]); in experiment [1] (setting [3])) were 0.1 to 0.5 µM, 50 to 100 µM and at least 100 µM, respectively. Moreover, the results for the inhibition at 100 µM in experiment [1] (setting [4]) and in experiment [1] (setting [5]) were 50 to 75% and 10 to 50%, respectively.

With `O=C1CN(c2c(O)cc(NC(=O)NC34CC(CO)(C3)C4)cc2F)S(=O)(=O)N1` [Example 111, 1-[3-fluoro-5-hydroxy-4-(1,1,4-trioxo-1,2,5-thiadiazolidin-2-yl)phenyl]-3-[3-(hydroxymethyl)-1-bicyclo[1.1.1]pentanyl]urea], the IC50 (in general, the midpoint of a concentration-inhibition curve) at GST-tagged PTPN2 protein was under 0.005 µM; in experiment [1] (setting [2]) it was 10 to 50 µM; in experiment [1] (setting [3]) it was at least 100 µM. Besides, the inhibition (commonly the change of the read-out against control, counted positive when it falls) at 100 µM was 75 to 100% in experiment [1] (setting [4]) and 10 to 50% in experiment [1] (setting [5]).

`CC(C)c1ccc(NC(=O)Nc2cc(O)c(N3CC(=O)NS3(=O)=O)c(F)c2)cc1` [Example 70, 1-[4-(1,1-dioxido-4-oxo-1,2,5-thiadiazolidin-2-yl)-3-fluoro-5-hydroxyphenyl]-3-[4-(propan-2-yl)phenyl]urea] gave an IC50 at GST-tagged PTPN2 protein of under 0.005 µM.

`Cc1ccccc1S(=O)(=O)Nc1cc(O)c(N2CC(=O)NS2(=O)=O)c(F)c1` [Example 23, N-[4-(1,1-dioxido-4-oxo-1,2,5-thiadiazolidin-2-yl)-3-fluoro-5-hydroxyphenyl]-2-methylbenzenesulfonamide]: the IC50 against GST-tagged PTPN2 protein was 0.05 to 0.1 µM; in experiment [1] (setting [2]), 50 to 100 µM; in experiment [1] (setting [3]), at least 100 µM. In addition, the inhibition at 100 µM in experiment [1] (setting [4]) fell in the range of 50 to 75%; in experiment [1] (setting [5]) it was 10 to 50%.

The compound `Cc1cccc(-c2cc(O)c(N3CC(=O)NS3(=O)=O)c(F)c2)c1` [Example 9, 5-(3-fluoro-5-hydroxy-3′-methylbiphenyl-4-yl)-1,2,5-thiadiazolidin-3-one 1,1-dioxide] gave a concentration for half-maximal inhibition (IC50) against GST-tagged PTPN2 protein of 0.1 to 0.5 µM.

For `O=C1CN(c2c(O)cc(NC(=O)NC3CCCCC3)cc2F)S(=O)(=O)N1` [Example 56, 1-cyclohexyl-3-[4-(1,1-dioxido-4-oxo-1,2,5-thiadiazolidin-2-yl)-3-fluoro-5-hydroxyphenyl]urea], the values for the IC50 (on GST-tagged PTPN2 protein; in experiment [1] (setting [2]); in experiment [1] (setting [3])) were under 0.005 µM, under 5 µM and at least 100 µM, respectively. The inhibition at 100 µM lay within 75 to 100% in experiment [1] (setting [4]) and 10 to 50% in experiment [1] (setting [5]).

On to `Cc1ccccc1-c1cc(O)c(N2CC(=O)NS2(=O)=O)c(F)c1` [Example 6, 5-(3-fluoro-5-hydroxy-2′-methylbiphenyl-4-yl)-1,2,5-thiadiazolidin-3-one 1,1-dioxide], for which the IC50 on GST-tagged PTPN2 protein is at least 0.5 µM.

As for `COCCCNC(=O)Nc1cc(O)c(N2CC(=O)NS2(=O)=O)c(F)c1` [Example 58, 1-[4-(1,1-dioxido-4-oxo-1,2,5-thiadiazolidin-2-yl)-3-fluoro-5-hydroxyphenyl]-3-(3-methoxypropyl)urea], the IC50 at GST-tagged PTPN2 protein was 0.01 to 0.05 µM; in experiment [1] (setting [2]), 5 to 10 µM; in experiment [1] (setting [3]), at least 100 µM. The inhibition at 100 µM in experiment [1] (setting [4]) fell in the range of 75 to 100%; in experiment [1] (setting [5]), 10 to 50%.

`O=C1CN(c2c(O)cc(NC(=O)Nc3ccccc3)cc2F)S(=O)(=O)N1` [Example 35, 1-[4-(1,1-dioxido-4-oxo-1,2,5-thiadiazolidin-2-yl)-3-fluoro-5-hydroxyphenyl]-3-phenylurea]: the IC50 at GST-tagged PTPN2 protein is 0.005 to 0.01 µM; in experiment [1] (setting [2]), 10 to 50 µM; in experiment [1] (setting [3]) it was at least 100 µM. The values for the inhibition at 100 µM in experiment [1] (setting [4]) and in experiment [1] (setting [5]) were 75 to 100% and 10 to 50%, respectively.

As for `O=C1CN(c2c(O)cc(NC(=O)Nc3cccc(F)c3)cc2F)S(=O)(=O)N1` [Example 54, 1-[4-(1,1-dioxido-4-oxo-1,2,5-thiadiazolidin-2-yl)-3-fluoro-5-hydroxyphenyl]-3-(3-fluorophenyl)urea], the IC50 is under 0.005 µM against GST-tagged PTPN2 protein, 10 to 50 µM in experiment [1] (setting [2]) and at least 100 µM in experiment [1] (setting [3]). Besides, the values for the inhibition at 100 µM in experiment [1] (setting [4]) and in experiment [1] (setting [5]) were 50 to 75% and 10 to 50%, respectively.

On to `CN(c1ccccc1)S(=O)(=O)Nc1cc(O)c(N2CC(=O)NS2(=O)=O)c(F)c1` [Example 31, N′-[4-(1,1-dioxido-4-oxo-1,2,5-thiadiazolidin-2-yl)-3-fluoro-5-hydroxyphenyl]-N-methyl-N-phenylsulfuric diamide], for which, at GST-tagged PTPN2 protein, the IC50 was 0.01 to 0.05 µM.

On GST-tagged PTPN2 protein, `Cc1ccc(-c2cc(O)c(N3CC(=O)NS3(=O)=O)c(F)c2)cc1` [Example 10, 5-(3-fluoro-5-hydroxy-4′-methylbiphenyl-4-yl)-1,2,5-thiadiazolidin-3-one 1,1-dioxide] registered an IC50 of 0.1 to 0.5 µM.

With `O=C1CN(c2c(O)cc(NC(=O)Nc3ccc(OC(F)(F)F)cc3)cc2F)S(=O)(=O)N1` [Example 71, 1-[4-(1,1-dioxido-4-oxo-1,2,5-thiadiazolidin-2-yl)-3-fluoro-5-hydroxyphenyl]-3-[4-(trifluoromethoxy)phenyl]urea], the IC50 on GST-tagged PTPN2 protein is under 0.005 µM.

As for `CN(C1CCCCC1)S(=O)(=O)Nc1cc(O)c(N2CC(=O)NS2(=O)=O)c(F)c1` [Example 32, N-cyclohexyl-N′-[4-(1,1-dioxido-4-oxo-1,2,5-thiadiazolidin-2-yl)-3-fluoro-5-hydroxyphenyl]-N-methylsulfuric diamide], the IC50 on GST-tagged PTPN2 protein fell in the range of 0.01 to 0.05 µM.

Compound `O=C1CN(c2c(O)cc(NC(=O)Nc3ccc(N4CCNCC4)cc3)cc2F)S(=O)(=O)N1` [Example 67, 1-[4-(1,1-dioxido-4-oxo-1,2,5-thiadiazolidin-2-yl)-3-fluoro-5-hydroxyphenyl]-3-[4-(piperazin-1-yl)phenyl]urea hydrochloride] yielded an IC50 against GST-tagged PTPN2 protein of under 0.005 µM.

Regarding `O=C1CN(c2c(O)cc(NC(=O)Nc3ccc(N4CCOCC4)cc3)cc2F)S(=O)(=O)N1` [Example 65, 1-[4-(1,1-dioxido-4-oxo-1,2,5-thiadiazolidin-2-yl)-3-fluoro-5-hydroxyphenyl]-3-[4-(morpholin-4-yl)phenyl]urea], at GST-tagged PTPN2 protein, the IC50 is under 0.005 µM.

As for `CC(C)(C)OC(=O)N1CCN(c2ccc(NC(=O)Nc3cc(O)c(N4CC(=O)NS4(=O)=O)c(F)c3)cc2)CC1` [Example 66, tert-butyl 4-[4-({[4-(1,1-dioxido-4-oxo-1,2,5-thiadiazolidin-2-yl)-3-fluoro-5-hydroxyphenyl]carbamoyl}amino)phenyl]piperazine-1-carboxylate], the IC50 against GST-tagged PTPN2 protein is under 0.005 µM.

Compound `O=C1CN(c2c(O)cc(NC(=O)NCc3ccccc3)cc2F)S(=O)(=O)N1` [Example 60, 1-benzyl-3-[4-(1,1-dioxido-4-oxo-1,2,5-thiadiazolidin-2-yl)-3-fluoro-5-hydroxyphenyl]urea] displayed an IC50 at GST-tagged PTPN2 protein of 0.01 to 0.05 µM.

Turning to `COc1ccc(NC(=O)Nc2cc(O)c(N3CC(=O)NS3(=O)=O)c(F)c2)cc1C(F)(F)F` [Example 68, 1-[4-(1,1-dioxido-4-oxo-1,2,5-thiadiazolidin-2-yl)-3-fluoro-5-hydroxyphenyl]-3-[4-methoxy-3-(trifluoromethyl)phenyl]urea], the half-maximal inhibitory concentration (IC50) on GST-tagged PTPN2 protein is under 0.005 µM.

On to `O=C1CN(c2c(O)cc(NC(=O)Nc3ccccc3F)cc2F)S(=O)(=O)N1` [Example 93, 1-[4-(1,1-dioxido-4-oxo-1,2,5-thiadiazolidin-2-yl)-3-fluoro-5-hydroxyphenyl]-3-(2-fluorophenyl)urea], for which, at GST-tagged PTPN2 protein, the IC50 was under 0.005 µM.
